This note sets out measurements from PMC2535826, “Cross-Species Differential Plasma Protein Binding of MBX-102/JNJ39659100: A Novel PPAR-γ Agonist” (PPAR Research, 2008).

The target in one data set is T1, human serum albumin (Homo sapiens, UniProt P02768).
T1 construct: purchased Sigma
The data set is described as follows: Albumin binding by surface plasmon resonance (SPR), HSA. The conditions noted are these: for %Bound: converted from KD. As to the method:
(§1) The characterization of the binding of MBX-102 acid against human, mouse, and rat albumin was performed using SPR-based biosensors (Biosensor Tools, Salt Lake City, Utah, USA). The assay methods used to assess the binding of MBX-102 acid to human, mouse, and rat albumins have been described previously. Briefly, each albumin was immobilized onto a CM5 sensor chip using standard amine coupling. Immobilization densities were between 10 000 and 13 000 RU. […] Each of the 16 different concentrations was tested in duplicate. […] All binding data were collected at 37°C. The binding response profile of MBX-102 acid over the three different albumin surfaces was evaluated and the binding constants for the high-affinity site were determined using a two-independent-site model. Conversion from KD to %bound was performed as previously described.

The target in data set [1] is T2, human PPAR-γ ligand-binding domain (Homo sapiens, UniProt P37231).
T2 construct: GST-PPARγ-LBD (5 nM), Tb-labeled anti-GST antibody (5 nM); purchased Invitrogen
T2 sequence (P37231 238-503 limits assumed): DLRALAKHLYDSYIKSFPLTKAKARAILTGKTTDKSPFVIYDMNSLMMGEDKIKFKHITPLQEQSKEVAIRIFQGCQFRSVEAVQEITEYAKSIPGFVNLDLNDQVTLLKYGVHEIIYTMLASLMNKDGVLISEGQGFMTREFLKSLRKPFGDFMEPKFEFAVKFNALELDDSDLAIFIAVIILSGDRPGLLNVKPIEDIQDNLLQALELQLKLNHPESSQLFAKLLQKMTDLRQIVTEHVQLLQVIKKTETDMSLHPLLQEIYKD
Briefly: Lanthascreen TR-FRET NCOR corepressor displacement assay. Format: biochemical. As to conditions: for IC50: 3 experiments, mean ± SD, read-out: IC50 displacement of NCOR corepressor peptide. The method, then: Assays were performed according to the manufacturer’s instructions. […] Life Science, Lowell, Mass, USA). […] The plate was covered and incubated for 4 hours at room temperature. The time resolved fluorescence resonance energy transfer (TR-FRET) signal was measured using a Pherastar fluorescence counter (BMG labtech, Offenburg, Germany). The ratio of the emission intensity of the acceptor (Fluorescein: λ = 520 nm) divided by the emission intensity of the donor (Tb: λ = 490 nm) was then calculated to determine the degree of NCOR binding. Each measurement was performed in quadruplicate.
(TR-FRET usually uses a lanthanide donor and a delayed reading to cut background.)

In data set [2] the test system is human, mouse, or rat PPAR-γ. Briefly: PPAR-γ reporter gene assays comparing human, mouse and rat PPAR-γ (data not shown). The class given is cell-based. As to the method:
For a pool sufficient to supply 100 wells, 6 million cells were diluted into medium for a total volume of 9 mL. The DNA-Lipofectamine 2000 mixture was prepared as per manufacturer’s instructions. For a pool sufficient to supply 100 wells, 5 μg Gal 4-Mouse PPAR-γ LBD, 5 μg pFR-Luciferase, and 500 ng Lac-z plasmids were mixed with 40 μL of Lipofectamine 2000 in Optimem medium in a total volume of 1 mL. The cell suspension was mixed with 1 mL of the DNA-Lipofectamine 2000 mixture. The mixture was plated into a 96-well plate and incubated for 4 hours at which time the transfection medium was removed and replaced with 100 μL DMEM, 10% (v/v) FBS and cultured overnight. The culture medium was then removed from the plates and replaced with 50 μL Pro293A medium. […] Measurement of luciferase and fluorescence activity was performed according to the manufacturer’s instructions. […] An 80 μL lysate aliquot was transferred to opaque white well plates and the luminescence measured. […] Each experimental condition was assessed in quadruplicate. The data were normalized for each well by dividing the luminescence measurement by the fluorescence measurement. Dose-response curves were generated and EC50 values were calculated using Prism Graphpad version 5.1.
For orientation: In a reporter assay the amount or activity of a reporter protein is the signal.

The nature of data set [3]: Plasma protein binding by equilibrium dialysis, human plasma. The class given is in vitro ADME. As to conditions: equilibrium dialysis vs PBS, 37°C, read-out: %Protein Binding ± SD (converted). The method, then:
(§2) Radiolabeled MBX-102 acid was prepared as a 1 mL ethanol solution at a concentration of 50 μM (1 mCi total). […] Final solvent concentrations were 1% of the total volume. Plasma was stored at −20°C. Prior to use, it was thawed and spun at approximately 2000 rpm for 5 minutes to remove any precipitated material. The pH was adjusted to pH 7.4 by careful addition of NaH2PO4. A 1 mL sample of spiked plasma was prepared by direct dilution of [^3H]-MBX-102 acid stock solution into plasma and then added to one side of an equilibrium dialysis chamber. The other chamber was filled with 1 mL of 0.01 M phosphate buffered saline (PBS). The dialysis apparatus was placed in a water bath at 37°C and rotated at 20 rpm. […] Once equilibrium was established, the contents of the cell chambers were removed and analyzed by liquid scintillation counting. The chambers were sampled in triplicate. […] The recovery percentage was found not to vary with MBX-102 acid concentration.
In general terms: Equilibrium dialysis compares concentrations on both sides of a semipermeable membrane.

A short description of data set [4]: Plasma protein binding by equilibrium dialysis, rat plasma. Format: in vitro ADME, Sprague Dawley rats. The conditions noted are these: Sprague Dawley, equilibrium dialysis vs PBS, 37°C, read-out: %Protein Binding ± SD (converted). The method, then:
as §2

The next data set has as its target T3, rat serum albumin (Rattus norvegicus, UniProt P02770).
T3 construct: purchased Sigma
Briefly: Albumin binding by surface plasmon resonance (SPR), RSA. The method, then:
as §1

Where “and” joins values, the source holds several entries; their conditions need not be identical. Equal entries are not always repeated. Where two headings read alike, the source gives them in different places.

T1 sequence (P02768 25-609): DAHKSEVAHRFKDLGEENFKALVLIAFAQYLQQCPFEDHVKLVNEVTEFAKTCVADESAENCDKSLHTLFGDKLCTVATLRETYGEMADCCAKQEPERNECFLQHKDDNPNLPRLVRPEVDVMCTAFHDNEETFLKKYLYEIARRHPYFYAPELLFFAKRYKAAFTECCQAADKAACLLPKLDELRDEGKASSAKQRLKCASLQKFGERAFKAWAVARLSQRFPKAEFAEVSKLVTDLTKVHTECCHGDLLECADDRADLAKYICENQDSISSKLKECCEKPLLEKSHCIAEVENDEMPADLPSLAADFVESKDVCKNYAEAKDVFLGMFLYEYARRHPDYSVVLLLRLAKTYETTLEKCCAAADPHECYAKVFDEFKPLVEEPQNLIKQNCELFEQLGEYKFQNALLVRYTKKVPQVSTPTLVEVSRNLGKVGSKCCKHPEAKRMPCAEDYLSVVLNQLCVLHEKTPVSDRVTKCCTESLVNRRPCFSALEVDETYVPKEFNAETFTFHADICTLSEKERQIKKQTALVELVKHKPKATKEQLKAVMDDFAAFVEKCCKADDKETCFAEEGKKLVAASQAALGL
T3 sequence (P02770 25-608): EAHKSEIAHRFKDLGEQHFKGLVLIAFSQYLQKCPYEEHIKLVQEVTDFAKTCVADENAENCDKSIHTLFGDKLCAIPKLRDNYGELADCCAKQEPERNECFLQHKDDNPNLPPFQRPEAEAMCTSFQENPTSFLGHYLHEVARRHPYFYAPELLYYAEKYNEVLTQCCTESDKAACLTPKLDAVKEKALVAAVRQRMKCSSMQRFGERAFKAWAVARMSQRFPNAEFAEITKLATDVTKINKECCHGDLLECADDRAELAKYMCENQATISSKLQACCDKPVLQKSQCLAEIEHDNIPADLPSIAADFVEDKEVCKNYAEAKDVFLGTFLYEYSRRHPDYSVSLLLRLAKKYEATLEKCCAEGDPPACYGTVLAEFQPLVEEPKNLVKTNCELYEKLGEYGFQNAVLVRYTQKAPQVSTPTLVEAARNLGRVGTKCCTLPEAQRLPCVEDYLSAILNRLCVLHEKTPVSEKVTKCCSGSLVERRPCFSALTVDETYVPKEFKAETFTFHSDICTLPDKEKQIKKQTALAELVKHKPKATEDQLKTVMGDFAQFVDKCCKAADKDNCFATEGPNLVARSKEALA

A word on the Kd: it is the free concentration of one partner at which half of the binding sites on the other are occupied at equilibrium, for simple one-to-one binding. Higher therefore signals weaker binding. Broadly, the IC50 is the concentration that gives 50% inhibition. Consider `O=C(O)[C@H](Oc1cccc(C(F)(F)F)c1)c1ccc(Cl)cc1` (stereo in doubt) [MBX-102 acid], for which the “%Bound” value on human serum albumin was more than 98%; at human serum albumin (listed as MBX-102), 99.1%; at rat serum albumin (RSA, converted from KD), 98.1%. Also, the Kd at human serum albumin (high-affinity site, two-independent-site model, 37°C, pH 7.4) is 5.8 µM; at rat serum albumin (RSA, high-affinity site, two-independent-site model, 37°C, pH 7.4), 12.8 µM. Moreover, the IC50 in data set [1] (0% serum) was 11 µM and 10.6 µM; in data set [1] (10% (v/v) human serum), 98.5 ± 6.6 µM; in data set [1] (40% (v/v) human serum), 200 ± 6.4 µM; in data set [1] (40% (v/v) mouse serum), 28.1 ± 2.6 µM; in data set [1] (40% (v/v) rat serum), 57.9 ± 14.2 µM. In addition, in data set [1] (40% human serum versus no serum), the “fold shift in the IC50” value is given as not above 19 fold. In addition, the “FC, IC50 fold change human-to-mouse serum” value in data set [1] (40% serum) is 7 and 7.17. The “FC, IC50 fold change human-to-rat serum” value in data set [1] (40% serum) is 4 and 3.59. Besides, the “intrinsic differences in ability to activate human, mouse, or rat PPAR-γ” value in data set [2] was “no intrinsic differences”. The fraction unbound at 400 µM was 0.002 in data set [3] (pH 7.4, MBX-102 acid 400 μM) and 0.002 in data set [4] (pH 7.4, MBX-102 acid 400 μM). The fraction unbound at 600 µM was 0.002 in data set [3] (pH 7.4, MBX-102 acid 600 μM) and 0.002 in data set [4] (pH 7.4, MBX-102 acid 600 μM). For the same molecule, the fraction unbound at 1000 µM in data set [3] (pH 7.4, MBX-102 acid 1000 μM) was 0.003; in data set [4] (pH 7.4, MBX-102 acid 1000 μM), 0.003. Besides, the fraction unbound at 2000 µM is 0.002 in data set [3] (pH 7.4, MBX-102 acid 2000 μM) and 0.005 in data set [4] (pH 7.4, MBX-102 acid 2000 μM). Moreover, the fraction unbound at 1500 µM in data set [4] (pH 7.4, MBX-102 acid 1500 μM) is 0.002. In addition, the fraction unbound at rat serum albumin (rat, rat serum albumin immobilized on a CM5 sensor chip, pH 7.4, RSA, converted from KD, read-out: %Bound) was less than 0.02.
